Reference: patent US8461078B2 (priority 2009, dated 2013)

Experiments:
[1] = system: Staphylococcus aureus, Escherichia coli, Aspergillus niger and A. flavus; details: literature report (Proc. Natl. Acad. Sci. India 1991); cited from earlier work
[2] = system: Leptosphaeria nodorum (LEPTNO); assay: In vitro fungitoxicity (growth inhibition) against Leptosphaeria nodorum in copper-minus and copper-plus medium; assay type: cell-based; details: 0.05 μg/mL, 72 h at 25° C.; for LEPTNO % Inhn. Plus Copper Observed: copper-plus medium (CuCl2, 10 μM); for inhibition of growth at 0.05 µg/mL: Parastagonospora nodorum, read-out: LEPTNO % Inhn. Minus Copper Observed
Description: In vitro fungitoxicity assays against Leptosphaeria nodorum (LEPTNO) were conducted using the liquid growth medium described by Coursen and Sisler (American Journal of Botany 1960, 47, 541-549) except that copper micronutrient, normally included as CuSO4, was omitted. The medium, termed “copper-minus”, was prepared by dissolving 10 g glucose, 1.5 g K2HPO4, 2 g KH2PO4 and 1 g (NH4)2SO4 in 1 liter of deionized water and treating the solution with 0.5 g Chelex 100 resin (Bio-Rad Analytical grade, 50-100 mesh, sodium form, cat #142-2822) by stirring at room temperature for 1 h. MgSO4.7H2O (0.5 g) was added, and stirring was continued for a further hour. Trace elements (minus CuSO4), and vitamins described by Coursen and Sisler were added from concentrated stock solutions and the entire medium was sterilized by filtration. Medium containing copper was prepared by adding CuCl2.2H2O to the copper-minus medium at 20 μM. Test compounds were dissolved in dimethylsulfoxide (DMSO) then dilutions in copper-minus and copper-plus growth media were prepared as 100 μL aliquots in flat-bottomed 96-well microtiter plates.
LEPTNO was grown on potato dextrose agar in 9 cm diameter petri dishes for 7 days. Sterile deionized water (20 mL) was added to a culture plate and spores suspended by scraping the surface gently with a sterile plastic loop. The resulting suspension was filtered through a double layer of sterile cheesecloth. Filtered spore suspension (5 mL) was centrifuged in a bench centrifuge at 2000 rpm for 2 min. The resulting spore pellet was resuspended in 10 mL sterile deionized water (which had been treated with Chelex 100 resin using 0.5 g resin per liter of water by stirring at room temperature for 1 h), and recentrifuged. The spores were resuspended in copper-minus medium, and the suspension adjusted to 2×10^5 spores per mL. Microtiter plates were inoculated with 100 μL of this spore suspension and the plates incubated at 25° C. for 72 h before assessing fungal growth by measuring light scattering in a NepheloStar plate reader. Growth inhibition was determined by comparing growth in the presence of test compound with growth in control wells lacking test compound.
Results for growth inhibition by test compounds in copper-plus medium (“% Inhn Plus Copper Observed”) were compared with predicted values (“% Inhn Plus Copper Predicted”) that were calculated using the formula set forth by S. R. Colby in Weeds 1967, 15, 20-22 based on results obtained for the same compounds in copper-minus medium (“% Inhn Minus Copper Observed”) and the inhibition attributed to copper chloride alone, as determined by comparing growth in copper-minus and copper-plus media without any test compound across experiments. Results illustrate that hydrazones and copper produce a synergistic fungitoxic effect towards LEPTNO.

Phytophthora infestans = assay type: in vivo, Phytophthora infestans on tomato plant; details: 50 ppm hydrazone with 50 μM CuCl2.2H2O; applied 24 h before inoculation; assessed 7 days after inoculation; tomato
Phytophthora capsici = assay: In vitro fungitoxicity (growth inhibition) against Phytophthora capsici in copper-minus AS and copper-plus AS medium; assay type: cell-based; details: CuCl2, 50 uM; no test compound; across experiments
Description: In vitro fungitoxicity assays against Phytophthora capsici were conducted using the asparagine-sucrose (AS) medium described in Canadian Journal of Microbiology 1961, 7, 15-25, except that copper micronutrient, normally included as CuSO4, was omitted. The medium, termed “copper-minus AS”, was prepared by dissolving 2 g asparagine, 0.43 g KH2PO4, 0.3 g K2HPO4, 0.4 mL of a 0.5 mg/mL thiamine-HCl solution and 15 g sucrose in 1 liter of deionized water and treating the solution with 0.5 g Chelex 100 resin (Bio-Rad Analytical grade, 50-100 mesh, sodium form, cat #142-2822) by stirring at room temperature for 1 h. The pH was adjusted to 6.4, then MgSO4.7H2O (100 μg/mL), FeSO4.7H2O (1 μg/mL), CaCl2 (50 μg/mL), ZnSO4.7H2O (1 μg/mL), NaMoO4.2H2O (0.2 μg/mL) and MnCl2.4H2O (0.2 μg/mL) were added and the entire medium was sterilized by filtration. […]
Phytophthora capsici was grown on petri plates, 9 cm in diameter, containing 15 mL V-8 agar, pH 7.0, containing 200 mL V-8 juice, 4 g CaCO3, and 20 g agar per liter. […] Microtiter plates were inoculated with 100 μL of spore suspension and incubated at 25° C. for 48 h before assessing fungal growth by measuring light scattering in a NepheloStar plate reader. Growth inhibition was determined by comparing growth in the presence of test compound with growth in control wells lacking test compound. […]

Compound | LEPTNO % Inhn. Plus Copper Observed [2] | inhibition of growth at 0.05 µg/mL ([2]; copper-minus medium) | TLB % Control (Phytophthora infestans) | other results
O=C(NN=Cc1ccccc1O)c1ccccc1O [o-hydroxybenzaldehyde-N-salicyloylhydrazone] | – | – | – | Antimicrobial activity [1]: Antimicrobial activity has been reported
O=C(N/N=C/c1cc(Cl)ccc1O)c1ccc(C(F)(F)F)cc1 [Compound 33] | – | – | – | LEPTNO % Inhn. Minus Copper Observed ([2]; copper-minus medium): 20.7%
O=C(N/N=C/c1cc(Cl)cc(Cl)c1O)c1cc(Cl)ccc1Br [Compound 36] | 92.5% | 0% | 70.9% | –
O=C(N/N=C/c1cc(Br)cc(Br)c1O)c1cc(Cl)ccc1Br [Compound 37] | 97.9% | 34.5% | 68.4% | –
O.O.[Cl][Cu][Cl] [CuCl2, CuCl2.2H2O, reference compound] | – | – | – | % Inhn attributed to copper chloride alone (Phytophthora capsici) (Phytophthora capsici): 4.5 ± 7.9%
